Source: patent US12228572B2, “Enhanced expression of polo-like kinase 3 (PLK3) in human immunodeficiency virus (HIV)-infected cells” (priority 2021, dated 2025)

Molecular target: T1, human PLK3 (Homo sapiens, UniProt Q9H4B4)
T1 construct: expressed in transfected cells
Type: cell-based

T1 sequence (Q9H4B4 whole entry): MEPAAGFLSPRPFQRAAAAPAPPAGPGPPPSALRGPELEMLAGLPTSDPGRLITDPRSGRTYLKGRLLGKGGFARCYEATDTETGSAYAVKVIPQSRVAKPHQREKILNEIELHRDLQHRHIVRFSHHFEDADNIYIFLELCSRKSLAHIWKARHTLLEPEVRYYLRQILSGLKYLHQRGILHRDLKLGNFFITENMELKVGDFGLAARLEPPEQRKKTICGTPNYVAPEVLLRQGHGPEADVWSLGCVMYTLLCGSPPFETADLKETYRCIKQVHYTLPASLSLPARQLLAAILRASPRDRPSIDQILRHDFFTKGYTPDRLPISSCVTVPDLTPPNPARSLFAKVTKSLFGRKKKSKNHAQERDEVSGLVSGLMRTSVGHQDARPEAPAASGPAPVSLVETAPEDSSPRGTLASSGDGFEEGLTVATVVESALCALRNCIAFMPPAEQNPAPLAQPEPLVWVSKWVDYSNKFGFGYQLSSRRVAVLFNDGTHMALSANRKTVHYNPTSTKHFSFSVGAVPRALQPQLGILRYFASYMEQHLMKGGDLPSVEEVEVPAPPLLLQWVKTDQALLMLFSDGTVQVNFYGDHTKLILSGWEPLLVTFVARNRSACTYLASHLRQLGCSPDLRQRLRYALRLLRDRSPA

## COc1cc2ncn(-c3cc(OCc4ccccc4C(F)(F)F)c(C(N)=O)s3)c2cc1OC [GW843682X]
  effect on the anti-HIV-1 ability of human PLK3: can inhibit the anti-HIV-1 ability of human PLK3
  expression level of PLK3: not changed
